# Measurements as given in EP0308983A2, “NMR imaging with Mn(II) coordination compositions” (priority 1987, dated 1989).
# How the values were obtained:
# [1] = Paramagnetic relaxation properties in water at 10 MHz (0.15T), RADX spin analyzer; format: physicochemical; conditions: for spin-lattice (T₁) relaxation value / spin-spin (T₂) relaxation value / millimolar relaxivity for T₁ / millimolar relaxivity for T₂ / Relaxivity (mM⁻¹sec⁻¹) Spin-Lattice / Relaxivity (mM⁻¹sec⁻¹) Spin-Spin: 10 MHz (0.15T); for millimolar relaxivity for T₁ / millimolar relaxivity for T₂: in water; for millimolar relaxivity for T₁: calculated from T₁ and concentration; for millimolar relaxivity for T₂: calculated from T₂ and concentration; for Spin-Spin Relaxivity: 0.15 T (10 MHz)
# Protocol: The paramagnetic relaxation properties of [manganese(II)·(H₂O)₂·(L-alanine)₂]⁺²(Cl₂)⁻² in water were measured at 10 MHz (0.15T) with a spin analyzer (RADX; Houston, TX) at 37°C. After thermal equilibrium, the spin-lattice (T₁) and spin-spin (T₂) relaxation values were measured in triplicate.
# The paramagnetic relaxation of the title compound in water was measured at 10 MHz (0.15T) with a spin analyzer (RADX; Houston, TX). After thermal equilibrium, the spin-lattice (T₁) and spin-spin (T₂) relaxation values were measured.
# Relaxivity was measured at 10 MHz (0.15T) as described in Example 10.
# The relaxivity of the title compound was performed at 0.15 T (10 MHz) with a RADX Spin Analyzer (Houston, TX) at 37°C.
# [2] = Paramagnetic relaxation properties in human plasma at 37°C; format: physicochemical; conditions: for T₂ value / T₁ value / R₁ / R₂ / T₁ changed by (repeat measurement) / T₂ changed by (repeat measurement): 37°C; for T₁ value: triplicate; for T₁ changed by (repeat measurement) / T₂ changed by (repeat measurement): repeat measurement 80 minutes later; for T₂ relaxivity in plasma, fold greater than GdDTPA: versus GdDTPA; for T₁ relaxivity in plasma, fold greater than GdDTPA: versus gadolinium diethylenetriaminepentaacetic acid chelate (GdDTPA)
# [3] = 0.95 mM solution in water, 37°C, triplicate, mean +/- SD
# [4] = 0.99 mM solution in water, 37°C, triplicate, mean +/- SD
# [5] = 0.94 mM solution in water, 37°C, triplicate, mean +/- SD
# [6] = 0.97 mM solution in water, 37°C, triplicate, mean +/- SD
# [7] = 0.98 mM solution in water, 37°C, triplicate, mean +/- SD
# [8] = 0.90 mM solution in water, 37°C, triplicate, mean +/- SD
Molecule,millimolar relaxivity for T₁ [1] [mM⁻¹ s⁻¹],millimolar relaxivity for T₂ [1] [mM⁻¹ s⁻¹],R₁ [2] [mM⁻¹ s⁻¹],R₂ [2] [mM⁻¹ s⁻¹],T₁ changed by (repeat measurement) [2],T₂ changed by (repeat measurement) [2],"T₂ relaxivity in plasma, fold greater than GdDTPA [2] [fold]","T₁ relaxivity in plasma, fold greater than GdDTPA [2] [fold]",other results
NC(=O)CC[C@H](N)C(=O)O.NC(=O)CC[C@H](N)C(=O)O.O.O.[Cl-].[Cl-].[Mn+2] [[Manganese(II)·(H₂O)₂·(L-glutamine)₂]⁺²(Cl₂)⁻²],9.75,39.0,44.3,59.1,5%,did not change,12.3,9.2,"spin-lattice (T₁) relaxation value [1, 3]: 108 ± 3 ms; spin-spin (T₂) relaxation value [1, 3]: 27 ± 0 ms; T₂ value ([2]; 90 µM final concentration): 188 ± 8 ms; T₁ value ([2]; 90 µM final concentration): 251 ± 18 ms"
NCC(=O)O.N[C@@H](CO)C(=O)O.N[C@@H](Cc1c[nH]cn1)C(=O)O.O=C(O)[C@@H]1CCCN1.O=S(=O)([O-])[O-].[Mn+2] [[Manganese(II)·Glycine·L-Serine·L-Histidine·L-Proline](Sulfate)],9.71,35.7,,,,,,,spin-lattice (T₁) relaxation value ([1]; 1 mM solution in water): 103 ms; spin-spin (T₂) relaxation value ([1]; 1 mM solution in water): 28 ms
CC(=O)[O-].CC(=O)[O-].NCC(=O)O.NCC(=O)O.NCC(=O)O.NCC(=O)O.[Mn+2] [[Manganese(II)·(Glycine)₄]Diacetate],,,,,,,,,Relaxivity (mM⁻¹sec⁻¹) Spin-Lattice ([1]; 1 mM solution in water): 8.00 mM⁻¹ s⁻¹; Relaxivity (mM⁻¹sec⁻¹) Spin-Spin ([1]; 1 mM solution in water): 33.3 mM⁻¹ s⁻¹
CC(=O)[O-].C[C@H](N)C(=O)O.C[C@H](N)C(=O)O.C[C@H](N)C(=O)O.O.[I-].[Mn+2] [[Manganese(II)H₂O(L-Alanine)₃](Acetate Iodide)],9.62,38.5,,,,,,,spin-lattice (T₁) relaxation value ([1]; 1 mM solution in water): 104 ms; spin-spin (T₂) relaxation value ([1]; 1 mM solution in water): 26 ms
N[C@@H](Cc1ccccc1)C(=O)O.N[C@@H](Cc1ccccc1)C(=O)O.O.O.[Cl-].[Cl-].[Mn+2] [[Manganese(II)·(H₂O)₂·(L-phenylalanine)₂]⁺²(Cl₂)⁻²],9.84,39.0,46.3,59.7,2%,2%,12.4,9.65,"spin-lattice (T₁) relaxation value [1, 3]: 107 ± 5 ms; spin-spin (T₂) relaxation value [1, 3]: 27 ± 1 ms; T₂ value ([2]; 90 µM final concentration): 186 ± 7 ms; T₁ value ([2]; 90 µM final concentration): 240 ± 10 ms"
C[C@H](N)C(=O)O.C[C@H](N)C(=O)O.O.O.[Cl-].[Cl-].[Mn+2] [[Manganese(II)·(H₂O)₂·(L-alanine)₂]⁺²(Cl₂)⁻²],9.81,39.3,44.7,56.9,3%,1%,11.9,9.3,"spin-lattice (T₁) relaxation value [1, 4]: 104 ± 9 ms; spin-spin (T₂) relaxation value [1, 4]: 26 ± 1 ms; T₂ value ([2]; 94 µM final concentration): 187 ± 3 ms; T₁ value ([2]; 94 µM final concentration): 238 ± 11 ms"
"CC(=O)[O-].CC(=O)[O-].O.O.O.O.[Mn+2] [[Manganese(II)·(H₂O)₄]Diacetate, reference compound]",,,,,,,,,Relaxivity (mM⁻¹sec⁻¹) Spin-Lattice ([1]; 1 mM solution in water): 9.09 mM⁻¹ s⁻¹; Relaxivity (mM⁻¹sec⁻¹) Spin-Spin ([1]; 1 mM solution in water): 33.3 mM⁻¹ s⁻¹; Spin-Spin Relaxivity ([1]; 37°C): 33.30 mM⁻¹ s⁻¹
NC(=O)C[C@H]([NH3+])C(=O)[O-].NC(=O)C[C@H]([NH3+])C(=O)[O-].O.O.[Cl-].[Cl-].[Mn+2] [Manganese(II)·(H₂O)₂·(L-asparginine)₂]⁺²(Cl₂)⁻²],9.09,36.7,45.5,58.5,7%,2%,12.2,9.5,"spin-lattice (T₁) relaxation value [1, 5]: 117 ± 5 ms; spin-spin (T₂) relaxation value [1, 5]: 29 ± 1 ms; T₂ value ([2]; 90 µM final concentration): 190 ± 3 ms; T₁ value ([2]; 90 µM final concentration): 244 ± 20 ms"
[Manganese(II)(H₂O)₂(L-serine)₂](Glycerophosphate),6.80,18.5,,,,,,,spin-lattice (T₁) relaxation value ([1]; 1 mM solution in water): 147 ms; spin-spin (T₂) relaxation value ([1]; 1 mM solution in water): 54 ms
C[C@@H](O)[C@H](N)C(=O)O.C[C@@H](O)[C@H](N)C(=O)O.O.O.[Cl-].[Cl-].[Mn+2] [Manganese(II)·(H₂O)₂·(L-threonine)₂]⁺²(Cl₂)⁻²],9.82,36.8,45.1,55.5,1%,11%,11.6,9.4,"spin-lattice (T₁) relaxation value [1, 6]: 105 ± 1 ms; spin-spin (T₂) relaxation value [1, 6]: 28 ± 1 ms; T₂ value ([2]; 92 µM final concentration): 196 ± 17 ms; T₁ value ([2]; 92 µM final concentration): 241 ± 7 ms"
O.O.O=C(O)[C@@H]1CCCN1.O=C(O)[C@@H]1CCCN1.[Cl-].[Cl-].[Mn+2] [Manganese(II)·(H₂O)₂·(L-proline)₂]⁺²(Cl₂)⁻²],9.63,39.3,46.5,53.2,5%,12%,11.1,9.7,"spin-lattice (T₁) relaxation value [1, 7]: 106 ± 4 ms; spin-spin (T₂) relaxation value [1, 7]: 26 ± 2 ms; T₂ value ([2]; 93 µM final concentration): 202 ± 12 ms; T₁ value ([2]; 93 µM final concentration): 234 ± 12 ms"
C[NH2+]CC(=O)[O-].C[NH2+]CC(=O)[O-].O.O.[Cl-].[Cl-].[Mn+2] [Manganese(II)·(H₂O)₂·(L-sarcosine)₂]⁺²(Cl₂)⁻²],9.19,39.3,46.4,55.4,6%,4%,11.5,9.7,"spin-lattice (T₁) relaxation value [1, 7]: 111 ± 2 ms; spin-spin (T₂) relaxation value [1, 7]: 26 ± 1 ms; T₂ value ([2]; 93 µM final concentration): 194 ± 16 ms; T₁ value ([2]; 93 µM final concentration): 232 ± 2 ms"
"NCC(=O)[O-].NCC(=O)[O-].O.O.O.O.O.O.O=S(=O)([O-])[O-].[Mn+2].[Mn+2] [[Manganese(II)·CH₂(NH₂)COO-]₂⁺¹(SO₄^=), reference compound]",,,,,,,,,Spin-Spin Relaxivity ([1]; 37°C): 2.92 mM⁻¹ s⁻¹
CC(=O)[O-].CC(=O)[O-].NCC(=O)O.NCC(=O)O.NCC(=O)O.O.[Mn+2] [[Manganese(II)·(H₂O)·(Glycine)₃]Diacetate],,,,,,,,,Relaxivity (mM⁻¹sec⁻¹) Spin-Lattice ([1]; 1 mM solution in water): 8.47 mM⁻¹ s⁻¹; Relaxivity (mM⁻¹sec⁻¹) Spin-Spin ([1]; 1 mM solution in water): 33.3 mM⁻¹ s⁻¹
CC(=O)[O-].CC(=O)[O-].NCC(=O)O.O.O.O.[Mn+2] [[Manganese(II)·(H₂O)₃]·(Glycine)]Diacetate],,,,,,,,,Relaxivity (mM⁻¹sec⁻¹) Spin-Lattice ([1]; 1 mM solution in water): 8.26 mM⁻¹ s⁻¹; Relaxivity (mM⁻¹sec⁻¹) Spin-Spin ([1]; 1 mM solution in water): 33.3 mM⁻¹ s⁻¹; Spin-Spin Relaxivity ([1]; 37°C): 33.30 mM⁻¹ s⁻¹
N[C@@H](CC(=O)O)C(=O)O.N[C@@H](CC(=O)O)C(=O)O.O.O.[Cl-].[Cl-].[Mn+2] [Manganese(II)·(H₂O)₂·(L-aspartic acid)₂]⁺²(Cl₂)⁻²],9.58,39.7,46.3,61.2,did not change,3%,12.8,9.7,"spin-lattice (T₁) relaxation value [1, 8]: 116 ± 3 ms; spin-spin (T₂) relaxation value [1, 8]: 28 ± 1 ms; T₂ value ([2]; 86 µM final concentration): 190 ± 12 ms; T₁ value ([2]; 86 µM final concentration): 251 ± 12 ms"
NC(CO)C(=O)O.O.O.O.O=C([O-])C(O)C(O)C(O)C(O)CO.O=C([O-])C(O)C(O)C(O)C(O)CO.[Mn+2] [[Manganese(II)(H₂O)₃-L-Serine]Digluconate],9.35,37.0,,,,,,,spin-lattice (T₁) relaxation value ([1]; 1 mM solution in water): 107 ms; spin-spin (T₂) relaxation value ([1]; 1 mM solution in water): 27 ms
